Converted amounts (≈) assume the structure as drawn.
What was measured:
[1] = Aqueous solubility of the compound; format: physicochemical
[2] = biological target: Heat shock protein HSP 90-alpha (Homo sapiens, UniProt P07900)
Description: Inhibition of Hsp90alpha after 3 hrs by fluorescence polarization assay

[3] = in vitro; details: rat, liver microsomes
[4] = test system: HCT-116; assay: Antiproliferative activity against human HCT116 cells measured on day 4 by Cell titer-glo assay; format: functional, cell-based

Row | SMILES | solubility [1] [µg/mL] | IC50 [2] [nM] | half-life [3] [min] | EC50 ([4]; Homo sapiens, HCT-116, 96 h) [nM] | EC50 ([4]; hct-116) [nM]
1 | Cc1c2c(n3c1CCNCCNc1cc-3ccc1C(N)=O)CC(C)(C)CC2=O | > 100 | 12400 | 15 | – | –
2 | Cc1c2c(n3c1CCNCCOCCNc1cc-3ccc1C(N)=O)CC(C)(C)CC2=O | 73 (≈ 172 µM) | 570 | 28 | 830 | –
3 | Cc1c2c(n3c1CNCCCCNc1cc-3ccc1C(N)=O)CC(C)(C)CC2=O | 18 (≈ 45.6 µM) | > 5000 | 18 | > 5000 | –
4 | Cc1c2c(n3c1CCC(C)NCCNc1cc-3ccc1C(N)=O)CC(C)(C)CC2=O (stereo not drawn) | 69 (≈ 169 µM) | 1240 | 26 | 940 | –
5 | Cc1c2c(n3c1CCCNCCNc1cc-3ccc1C(N)=O)CC(C)(C)CC2=O | 35 (≈ 88.7 µM) | 920 | > 30 | 820 | –
6 | Cc1c2c(n3c1CCCNCC(C)(C)CNc1cc-3ccc1C(N)=O)CC(C)(C)CC2=O | 6 (≈ 13.7 µM) | 290 | 3 | – | 210
7 | Cc1c2c(n3c1CCCNC(C)(C)CNc1cc-3ccc1C(N)=O)CC(C)(C)CC2=O | 52 (≈ 123 µM) | 140 | 15 | – | 80
8 | Cc1c2c(n3c1CNCCC[C@H](C)Nc1cc-3ccc1C(N)=O)CC(C)(C)CC2=O | 16 (≈ 39.2 µM) | > 5000 | 7 | > 5000 | –
9 | CC(=O)N1CCc2c(C)c3c(n2-c2ccc(C(N)=O)c(c2)N[C@@H](C)CC1)CC(C)(C)CC3=O | 19 (≈ 42.2 µM) | 110 | 9 | 150 | –
10 | Cc1c2c(n3c1CC[C@H](C)N[C@H](C)CNc1cc-3ccc1C(N)=O)CC(C)(C)CC2=O | 58 (≈ 137 µM) | 430 | 7 | 360 | –
11 | Cc1c2c(n3c1CCNCCCNc1cc-3ccc1C(N)=O)CC(C)(C)CC2=O | – | 400 | – | 8140 | –
12 | Cc1c2c(n3c1CC[C@@H](C)N[C@H](C)CNc1cc-3ccc1C(N)=O)CC(C)(C)CC2=O | > 100 | 90 | 15 | 30 | –
13 | Cc1c2c(n3c1CCNCC[C@H](C)Nc1cc-3ccc1C(N)=O)CC(C)(C)CC2=O | 67 (≈ 164 µM) | – | – | – | –
14 | Cc1c2c(n3c1CCCN(C)C[C@H](C)Nc1cc-3ccc1C(N)=O)CC(C)(C)CC2=O | 31 (≈ 73.4 µM) | 150 | 11 | – | 80
15 | Cc1c2c(n3c1CCNCC(O)CNc1cc-3ccc1C(N)=O)CC(C)(C)CC2=O (stereo not drawn) | 70 (≈ 171 µM) | 320 | 10 | 600 | –
16 | Cc1c2c(n3c1CCCNC[C@H](C)Nc1cc-3ccc1C(N)=O)CC(C)(C)CC2=O | > 100 | – | – | – | –
17 | Cc1c2c(n3c1CCCNCC(C)(C)Nc1cc-3ccc1C(N)=O)CC(C)(C)CC2=O | 45 (≈ 106 µM) | 830 | > 30 | 620 | –
18 | Cc1c2c(n3c1CCNCC(C)CNc1cc-3ccc1C(N)=O)CC(C)(C)CC2=O (stereo not drawn) | 39 (≈ 95.5 µM) | 360 | 5 | 250 | –

From ChEMBL document CHEMBL1759983, “Design and SAR of macrocyclic Hsp90 inhibitors with increased metabolic stability and potent cell-proliferation activity” (Bioorg Med Chem Lett, 2011)
